Data taken from patent publication US20250243427A1, “PRECURSORS OF PHENOLIC FRAGRANT COMPOUNDS” (GIVAUDAN SA, priority 2021, published 2025).

Key:
[1] = Odor description on paper blotter; conditions: 1% solution in EtOH on paper blotter, 24 h
[2] = Application in shampoo base, odour on hair swatch; conditions: 0.2% by weight in clear hair shampoo base; dried hair swatch 1 and 3 days; panel of 7 experts
Method: A hair shampoo sample (20 g) was prepared by adding 0.2% by weight of 3-ethoxy-4-(hex-3-en-1-yloxy)benzaldehyde (compound of example 3) to unperfumed clear hair shampoo base and mixing on a bottle roller for 24 h at room temperature. An odour-neutral human hair swatch was wetted with warm tap water and lathered delicately with 2 mL of the above hair shampoo sample for 30 sec by hand wearing gloves. The lathered hair swatch was left in a plastic bowl for 2 min, then rinsed under running tap water for 20 sec. After removing excess water by squeezing the hair swatch between two fingers, it was left to dry in open air. The odour of the wet and dried hair swatch (1 and 3 days) was assessed by a panel of 7 experts.

With `CCC=CCCOc1ccc(C=O)cc1OCC` [Example 3, 3-ethoxy-4-(hex-3-en-1-yloxy)benzaldehyde] as the compound, how does the Odor description [1] read?
Its Odor description is “powdery sweet (vanilla)”.

What about the “odour perceived on dry hair swatch” value [2] of the same compound?
The value was “Five out of seven experts perceived a vanilla note”.
